Measured values taken from US20240122909A1, “TREATMENTS OF HEREDITARY ANGIOEDEMA” (KALVISTA PHARMACEUTICALS LIMITED, priority 2021, published 2024).

What was measured:
[1] = Phase 2 study Part 2, efficacy in on-demand treatment of HAE attacks; format: in vivo, human
Experimental: In Part 2, the subjects were randomized 1:1 to 2 treatment sequences. This part of the study was conducted away from the clinic or hospital. In Sequence 1 (study arm 1) subjects received a single dose of 600 mg of the compound to treat the first eligible HAE attack. Following resolution of this attack, subjects received a single dose of placebo to treat the second eligible HAE attack.
In Sequence 2 (study arm 2) subjects received a single dose of placebo to treat the first eligible HAE attack. Following resolution of this attack, subjects received a single dose of 600 mg of the compound to treat the second eligible HAE attack.
Laryngeal or facial attacks were not eligible for treatment. HAE attacks must have been treated within the first hour of onset and before reaching severe on the global attack severity scale. Subjects must also have been able to identify the start of a HAE attack. Upon onset of the eligible HAE attack, subjects notified the dedicated study physician or qualified designee with a description of the HAE attack. The dedicated study physician or qualified designee confirmed eligibility of the HAE attack and agreed to study drug being administered. HAE attacks required documentation, on the Subject Diary, of attack location, attack symptoms, time of onset, attack severity, and time of last substantial meal prior to dosing. Subjects took study drug, as instructed, and completed timed assessments of their HAE attack symptoms for a 48 h period as documented below in Table 3. The dedicated study physician or qualified designee contacted the subject within 24 h of the eligible HAE attack to confirm the subject's safety and wellbeing. Subjects were instructed to contact the dedicated study physician or qualified designee in case of any safety concerns. In the case of hypersensitivity, subjects contacted the dedicated study physician or qualified designee or contact the nearest emergency service. The dedicated study physician or qualified designee was available 24 h/day and 7 days/week to receive subject calls.
Time to use of conventional attack treatment was assessed. The subject diary captured the efficacy endpoints including time to use of conventional attack treatment and HAE attack severity.
Overall HAE attack severity was assessed on a 5-point Likert scale (5LS) scored as none, mild, moderate, severe and very severe.
Change in HAE attack severity was assessed using a 7-point transition question (7TQ), scored as Much better/Better/A little better/No change/A little worse/Worse/Much worse.
The type of HAE attack symptoms (abdominal pain, skin pain and skin swelling) was each assessed on a 100 mm visual analogue scale (VAS) anchored at 0 (none) and 100 (very severe).
The primary endpoint, time to use of conventional attack treatment, was analyzed using a generalization of Gehan's test proposed by Feingold and Gillespie (1996) (Crossover trials with censored data. Statistics in Medicine 1996; 15(10): 953-967) to reflect the repeat measures on each subject. Subjects were treated as censored if no worsening occurs within 12 h of study drug.
The proportion of HAE attacks that worsen by one level or more on the 5LS or that require conventional attack treatment within 12 h of study drug was analyzed using Prescott's test (1981) (The comparison of success rates in cross-over trials in the presence of an order effect. Applied Statistics 1981; 30: 9-15) to compare the treatment arms.
A similar approach to that used for the primary endpoint was followed for the analysis of the time between study drug and HAE attack worsening by one level or more on the 5LS or use of conventional attack treatment, whichever comes first within 12 h. […]

[2] = Phase 1 single ascending dose study, safety and tolerability; format: in vivo, human; settings: phase I trial, healthy males
Source text: This study was a randomized, double-blind, placebo-controlled single ascending dose (SAD) and crossover studies for food effect and capsule/tablet formulations.

COCc1nn(Cc2ccc(Cn3ccccc3=O)cc2)cc1C(=O)NCc1nccc(OC)c1F [compound of Formula A, N-[(3-fluoro-4-methoxypyridin-2-yl)methyl]-3-(methoxymethyl)-1-({4-[(2-oxopyridin-1-yl)methyl]phenyl}methyl)pyrazole-4-carboxamide]
PGI-C: Median time to HAE attack being (1) rated a little worse or higher for two consecutive time points, or (2) use of conventional attack treatment, whichever comes first ([1]; 600 mg, N = 53, at 12 hours): >12 h | PGI-C: Median time to HAE attack being rated a little worse or higher for two consecutive time points ([1]; 600 mg, N = 53, at 12 hours): >12 h | PGI-C: Proportion of HAE attacks that were stable or improved ([1]; 600 mg, N = 53, at 12 hours): 48 (90.6) n (%) | PGI-S: Median time to HAE attack resolution (rating of none) ([1]; 600 mg, N = 53, at 12 hours): >12 h | PGI-S: Median time to improvement by one level or more from baseline ([1]; 600 mg, N = 53, at 12 hours): 9.0 h | PGI-S: Proportion of HAE attacks that improved by 1 level or more from baseline ([1]; 600 mg, N = 53, at 12 hours): 30 (56.6) n (%) | PGI-S: Proportion of patients with HAE attack resolution (rating of none) ([1]; 600 mg, N = 53, at 12 hours): 20 (37.7) n (%) | VAS: Proportion of HAE attacks with symptom relief (50% reduction from baseline in composite VAS for three consecutive time points) ([1]; 600 mg, N = 53, at 12 hours): 33 (62.3) n (%) | PGI-C: Median time to HAE attack being (1) rated a little worse or higher for two consecutive time points, or (2) use of conventional attack treatment, whichever comes first ([1]; 600 mg, N = 53, at 24 hours): >24 h | PGI-C: Median time to HAE attack being rated a little worse or higher for two consecutive time points ([1]; 600 mg, N = 53, at 24 hours): >24 h | PGI-C: Proportion of HAE attacks that were stable or improved ([1]; 600 mg, N = 53, at 24 hours): 45 (84.9) n (%) | PGI-S: Median time to HAE attack resolution (rating of none) ([1]; 600 mg, N = 53, at 24 hours): 18.0 h | PGI-S: Median time to improvement by one level or more from baseline ([1]; 600 mg, N = 53, at 24 hours): 9.0 h | PGI-S: Proportion of HAE attacks that improved by 1 level or more from baseline ([1]; 600 mg, N = 53, at 24 hours): 35 (66.0) n (%) | PGI-S: Proportion of patients with HAE attack resolution (rating of none) ([1]; 600 mg, N = 53, at 24 hours): 28 (52.8) n (%) | VAS: Proportion of HAE attacks with symptom relief (50% reduction from baseline in composite VAS for three consecutive time points) ([1]; 600 mg, N = 53, at 24 hours): 39 (73.6) n (%) | severity of the HAE attack, composite VAS score ([1]; 600 mg, over 12 hours and 24 hours): reduced the severity of the HAE attack | attacks improved to “none” on PGI-S (5LS) ([1]; 600 mg, within 12 hours): 37.7% | number of attacks stabilized or improved by PGI-S (5LS) or use of rescue ([1]; 600 mg, within 12 hours): significantly increased the number of attacks stabilized or improved | attacks improved to “none” on PGI-S (5LS) ([1]; 600 mg, within 24 hours): 52.8% | Median time to symptom relief ([1]; abdominal attacks): 1.5 h | attacks that achieved attack resolution within 24 hours ([1]; abdominal attacks): 61.1% | attacks that achieved symptom relief (PGI-C at least “A little better” within 12 hours) ([1]; abdominal attacks): 77.8% | Median time to symptom relief ([1]; peripheral attacks): 2.5 h | attacks that achieved attack resolution within 24 hours ([1]; peripheral attacks): 50.0% | attacks that achieved symptom relief (PGI-C at least “A little better” within 12 hours) ([1]; peripheral attacks): 77.5% | tolerability [2]: no tolerability signals
